Test results from the C3SDB collision cross section collection.
Several values for one entry are separate records, joined by “and”; a condition that tells them apart may be missing. Equal entries are not always repeated.

Settings: [M+H]+; instrument: TW; calibrated with phosphatidylcholines (ESI+) and phosphatidylethanolamines (ESI-)

collision cross section (N2) [Å²]	SMILES
278	CCCCCC/C=C\CCCCCCCCCC(=O)OC[C@H](COP(=O)([O-])OCC[N+](C)(C)C)OC(=O)CCCCCCCCCCCCC [PC(32:1)]

Settings: [M-2H]2-; instrument: TW; calibrated with phosphatidylcholines (ESI+) and phosphatidylethanolamines (ESI-), doubly charged cardiolipins calibrated with poly-DL-…

collision cross section (N2) [Å²]	SMILES
404.19	CCCCCC/C=C\CCCCCCCC(=O)OCC(COP(=O)(O)OCC(O)COP(=O)(O)OCC(COC(=O)CCCCCCCC1CC1CCCCCC)OC(=O)CCCCCCC/C=C\CCCCCC)OC(=O)CCCCCCC/C=C\CCCCCCCC (stereo not drawn) [CL(67:4)]

Same assay, conditions: [M-H]-; instrument: TW; calibrated with phosphatidylcholines (ESI+) and phosphatidylethanolamines (ESI-), doubly charged cardiolipins calibrated with poly-DL-…

collision cross section (N2) [Å²]	SMILES
256.82	CCCCCC/C=C\CCCCCCCC(=O)OCC(COP(=O)(O)O)OC(=O)CCCCCCCC1CC1CCCCCCCC (stereo not drawn) [PA(35:2)]
247.47	CCCCCC/C=C\CCCCCCCC(=O)OCC(COP(=O)(O)O)OC(=O)CCCCCCC/C=C\CCCCCC (stereo not drawn) [PA(32:2)]
209.98	CCCCCC/C=C/CCCCCCCC(=O)O[C@H](CO)COP(=O)(O)OCC(O)CO (stereo partly drawn) [LPG(16:1)]

Settings: [M+H]+; instrument: DT; single field

SMILES	collision cross section (N2) [Å²]
CCCCCC/C=C\CCCCCCCCCC(=O)OC[C@H](COP(=O)([O-])OCC[N+](C)(C)C)OC(=O)CCCCCCCCCCCCC [PC(32:1)]	279.13
CCCCCCCCCCCCC=CC[C@@H](O)[C@H](COP(=O)([O-])OCC[N+](C)(C)C)NC(=O)CC=CCCCCCCCCCCCCCCCCCCCC [SM(42:2)]	305.54
CCCCCCCCCCCCC=CC[C@@H](O)[C@H](COP(=O)([O-])OCC[N+](C)(C)C)NC(=O)CCCCCCCCCCCCCCCCCCCCCC [SM(41:1)]	302.5

Next, values leading:

collision cross section (N2) [Å²]	SMILES
276.07	C=CCCCCCCCCCCCCC(=O)O[C@H](COC(=O)CCCCCCCCCCCCCCC)COP(=O)([O-])OCC[N+](C)(C)C [PC(31:1)]
284.31	CCCCCCCCCCCCC=CC[C@@H](O)[C@H](COP(=O)([O-])OCC[N+](C)(C)C)NC(=O)CCCCCCCCCCCCCCCC [SM(35:1)]
304.96	CCCCCCCCCCCCC=CC[C@@H](O)[C@H](COP(=O)([O-])OCC[N+](C)(C)C)NC(=O)CCCCCCCCCCCCCCCCCCCCCCC [SM(42:1)]
293.47	CCCCCCCCCCCCC=CC[C@@H](O)[C@H](COP(=O)([O-])OCC[N+](C)(C)C)NC(=O)CCCCCCCCCCCCCCCCCCC [SM(38:1)]

Same assay, conditions: [M+NH4]+; instrument: DT; single field

SMILES	collision cross section (N2)
CCCC/C=C\CCCCCCCC(=O)OC[C@H](COC(=O)CCCCCCC/C=C\CCCCCCCCC)OC(=O)CCCCCCC/C=C\CCCCCCCCC [TG(52:3)]	318.16 Å² and 320.59 Å² and 322.8 Å²
CCCCCCCCCCCCCCCCCCCC(=O)OC[C@@H](COC(=O)CCCCCCCCCCC)OC(=O)CCCCCCCCCCCCCCCCCCC [TG(52:0)]	323.2 Å² and 325.31 Å²
CCCCC/C=C\C/C=C\C/C=C\C/C=C\CCCCCC(=O)OC[C@@H](COC(=O)CCCCCCCCCCCCC)OC(=O)CCCCCCC/C=C\CCCCCCC [TG(53:5)]	317.8 Å² and 320.46 Å² and 322.68 Å²
CCCCCCCC/C=C\CCCCCCCC(=O)OC[C@@H](COC(=O)CCCCCCCCCCC)OC(=O)CCCCCCCCCCC [TG(42:1)]	289.72 Å² and 292.07 Å² and 292.03 Å²
CCCCC/C=C\C/C=C\C/C=C\CCCCCCCCC(=O)OC[C@@H](COC(=O)CCCCCCCCCCCCCCCCC)OC(=O)CCCCCCCCC/C=C\C/C=C\CCCCC [TG(60:5)]	344.42 Å²
CCCCCCC/C=C\CCCCCCCC(=O)OC[C@@H](COC(=O)CCCCCCCCCCC)OC(=O)CCCCCCC/C=C\CCCCCCC [TG(46:2)]	300.67 Å² and 303.01 Å²
CCCCC/C=C\CCCCCCCC(=O)OC[C@H](COC(=O)CCCCCCCCC/C=C\CCCCCCCC)OC(=O)CCCCCCCCC/C=C\CCCCCCCC [TG(55:3)]	330.49 Å² and 333.23 Å² and 328.28 Å²
CCCCC/C=C\CCCCCCCC(=O)OC[C@H](COC(=O)CCCCCCC/C=C\CCCCCCCCC)OC(=O)CCCCCCC/C=C\CCCCC [TG(49:3)]	308.33 Å² and 309.79 Å² and 313.23 Å²
CCCC/C=C\CCCCCCCC(=O)OC[C@H](COC(=O)CCCCCCCCC/C=C\CCCCCCCC)OC(=O)CCCCCCCCC/C=C\CCCCCCCC [TG(54:3)]	324.13 Å² and 326.41 Å² and 329.85 Å²

Now from value to compound:

collision cross section (N2)	SMILES
323.28 Å² and 324.75 Å²	CC/C=C\C/C=C\C/C=C\C/C=C\C/C=C\CCCC(=O)OC[C@@H](COC(=O)CCCCCCCCCCCCCCCCC)OC(=O)CCCC/C=C\C/C=C\C/C=C\CCCCC [TG(56:8)]
339.23 Å² and 342.34 Å² and 337.3 Å²	CCCCC/C=C\C/C=C\C/C=C\CCCCCCC(=O)O[C@H](COC(=O)CCCCCCCCCCCCCCC)COC(=O)CCCCCCCCCCCCCCCCCCCCC [TG(58:3)]
328.42 Å² and 327.73 Å²	CC/C=C\C/C=C\C/C=C\C/C=C\C/C=C\CCCCCC(=O)OC[C@@H](COC(=O)CCCCCCC/C=C\CCCCCC)OC(=O)CCCCCC/C=C\C/C=C\C/C=C\CCCCC [TG(58:9)]
327.44 Å²	CC/C=C\C/C=C\C/C=C\C/C=C\C/C=C\CCCCCC(=O)OC[C@@H](COC(=O)CCCCCCCCCCCCCCC)OC(=O)CCC/C=C\C/C=C\C/C=C\C/C=C\C/C=C\CC [TG(58:10)]
328.36 Å² and 330.81 Å² and 326.47 Å²	CCCCC/C=C\C/C=C\C/C=C\C/C=C\CCCCCC(=O)OC[C@@H](COC(=O)CCCCCCCCCCC)OC(=O)CCCCCCCCCCCCCCCCCCCC [TG(55:4)]

Same assay, conditions: [M+Na]+; instrument: DT; single field

SMILES	collision cross section (N2)
CCCC/C=C\CCCCCCCC(=O)OC[C@H](COC(=O)CCCCCCC/C=C\CCCCCCCCC)OC(=O)CCCCCCC/C=C\CCCCCCCCC [TG(52:3)]	317.01 Å² and 319.26 Å²
CCCCCCCCCCCCCCCCCCCC(=O)OC[C@@H](COC(=O)CCCCCCCCCCC)OC(=O)CCCCCCCCCCCCCCCCCCC [TG(52:0)]	323.38 Å²
CCCCCCCC/C=C\CCCCCCCC(=O)OC[C@@H](COC(=O)CCCCCCCCCCC)OC(=O)CCCCCCCCCCC [TG(42:1)]	288.53 Å² and 291.03 Å²
CCCCCCCCCC/C=C\CCCCCCCCCC(=O)OC[C@@H](COC(=O)CCCCCCCCCCC)OC(=O)CCCCCCCCC/C=C\CCCCCCCCCC [TG(56:2)]	332.96 Å²
CCCCCCC/C=C\CCCCCCCC(=O)OC[C@@H](COC(=O)CCCCCCCCCCC)OC(=O)CCCCCCC/C=C\CCCCCCC [TG(46:2)]	299.74 Å² and 302.02 Å²

The remaining lines, values ahead:

collision cross section (N2)	SMILES
325.86 Å² and 328.61 Å²	CCCC/C=C\CCCCCCCC(=O)OC[C@H](COC(=O)CCCCCCCCCCCCCCCCCCC)OC(=O)CCCCCCCCCCCCCCCCCCC [TG(54:1)]
329.2 Å²	CC/C=C\C/C=C\C/C=C\C/C=C\C/C=C\CCCCCC(=O)OC[C@@H](COC(=O)CCCCCCC/C=C\CCCCCC)OC(=O)CCCCCC/C=C\C/C=C\C/C=C\CCCCC [TG(58:9)]
